Experimental data: patent publication US20200172913A1, “PEPTIDES AND NANOPARTICLES FOR INTRACELLULAR DELIVERY OF VIRUS” (priority 2017, published 2020)
Where no end group is shown, it is not given here. PEG = not defined here; βAla = NCCC(=O)O

Legend:
[1] = system: 293 T cells; experiment: AAV-2/PEP-1 peptide particle stability (serum, heparin), GFP expressing cells by flow cytometry; assay type: cell-based; settings: for effect of the modification on AAV/PEP-1 complex stability in serum: high concentration of serum; for reduction of the level of GFP expressing cells (efficacy): particles incubated 1 hour in 50% serum, 50 μM peptide, AAV-2 MOI of 300; for increase of efficacy: standard conditions (no serum, no heparin), vs unmodified PEP-1
Experimental: Stock solutions of peptides were prepared at 2 mg/mL in distilled water or 5% DMSO and sonicated for 10 min in a water bath sonicator then diluted just before use. AAV-2 encoding green fluorescent protein at MOI of 300 was pre-incubated in low salt medium with PEP-1 peptides containing either a specific targeting motif, a PEG or Dopamine moiety at a concentration of 50 μM for 30 min. The AAV-2/peptide particle stability was evaluated in different conditions. Particles were incubated for 1 hour in DMEM medium containing 10, 20 to 50% serum (FSC) or in the presence of heparin (5 and 10 μg). Then AAV alone or PEP-1/AAV complexes were added to cultured 293 T cells in a 24 well plate format. Cells were treated with either free AAV-2 or Peptide/AAV-2 complexes for 4 h, and then the medium was replaced with fresh medium. Viral mediated transgene expression was monitored 2 days post-infection. GFP expressing cells were detected by flow cytometry.

[2] = system: HepG2 and HCN2 cells; experiment: AAV-6-GFP transduction with CPPs, statements for both cell lines; assay type: cell-based, human; settings: for impact on AAV-6 infectivity: 1 μM concentration, both cell lines; for share of the final improvement obtained at 200 μM: 10 μM concentration, AAV-6, both cell lines
Experimental: (§1) In this example different AAV serotypes including AAV 1, AAV2, AAV5, AAV6, AAV8 and AAV9 were tested against human hepatocytes (HepG2) and human neuronal cells (HCN2) in the presence or in the absence of CPPs including ADGN-103a, ADGN-103b, ADGN-100, ADGN-109, ADGN-106, PEP-1, PEP-2, CADY, and TAT-HA2.
(§2) AAV-1, AAV-2, AAV-5, and AAV-6 viruses encoding green fluorescent protein were obtained from Cell Biolabs Inc and AAV-8 from Vector Biolabs. Stock solutions of virus were obtained at 1χ10^13 GC/ml in PBS/0.01% and diluted 50-fold to 2×10^11 GC/ml before use.
(§3) AAV-1, AAV-2, AAV-5, and AAV6 encoding green fluorescent protein were used at low MOI of 500 (1-2×10^7 PFU) and AAV-8 at MOI of 1000 (2-4×10^7 PFU). HepG2 and HCN2 cells (1 10^6 cells per well) were cultured in a 24 well plate culture dish format. For MOI of 1000, 5 μl of AAV virus diluted solutions were preincubated in PBS with increasing concentration of CPPs ranging from 0.1 to 200 μM for 30 min. For MOI of 500, 2.5 μl of AAV virus diluted solutions were preincubated in PBS with increasing concentration of CPPs ranging from 0.1 to 200 μM for 30 min. 200 μl of AAV or CPP/AAV complex solutions were added to cultured cells (1×10^6 cells per well). Cells are treated with either free AAV or CPP/AAV complexes for 4 h. and then the medium is replaced with fresh medium.
(§4) Viral mediated transgene expression was monitored by flow cytomety 2 days post-infection in HepG2 and Human neuronal HCN2. The percentage of GFP expressing cells were detected by flow cytometry and the increase of AAV infectivity was calculated based on the number of GFP-positive cells. Results are reported in FIGS. 5A-5D, 6A-6D, 7A-7D, 8A-8D, and 9A-9D.

[3] = system: HCN2 cells; experiment: AAV-5-GFP transduction with CPPs, flow cytometry; assay type: cell-based, human; settings: 200 μM CPP; for cells expressing GFP: AAV-5 MOI of 500, HCN2, 5% in the absence of CPP; for increase of AAV-5 efficiency: MOI of 500, HCN2
Experimental: as §1, §2, §3, §4

[4] = system: HepG2 cells; experiment: AAV-5-GFP transduction with CPPs, flow cytometry; assay type: cell-based, human; settings: 200 μM CPP; for cells expressing GFP: AAV-5 MOI of 500, HepG2, 5% in the absence of CPP; for increase of AAV-5 efficiency: MOI of 500, HepG2
Experimental: as §1, §2, §3, §4

[5] = system: HCN2 cells; experiment: AAV-2-GFP transduction with CPPs, flow cytometry; assay type: cell-based, human; settings: 200 μM CPP; for cells expressing GFP: AAV-2 MOI of 500, HCN2, 4% in the absence of CPP; for increase of AAV-2 efficiency: MOI of 500, HCN2
Experimental: as §1, §2, §3, §4

[6] = system: HepG2 cells; experiment: AAV-2-GFP transduction with CPPs, flow cytometry; assay type: cell-based, human; settings: 200 μM CPP; for cells expressing GFP: AAV-2 MOI of 500, HepG2, 4% in the absence of CPP; for increase of AAV-2 efficiency: MOI of 500, HepG2
Experimental: as §1, §2, §3, §4

[7] = system: HepG2 and HCN2 cells; experiment: AAV-5-GFP transduction with CPPs, statements for both cell lines; assay type: cell-based, human; settings: for impact on AAV-5 infectivity: 1 μM concentration, both cell lines; for share of the final improvement obtained at 200 μM: 10 μM concentration, AAV-5, both cell lines
Experimental: as §1, §2, §3, §4

[8] = system: HCN2 cells; experiment: AAV-1-GFP transduction with CPPs, flow cytometry; assay type: cell-based, human; settings: 200 μM CPP; for cells expressing GFP: AAV-1 MOI of 500, HCN2, 5% in the absence of CPP; for increase of AAV-1 efficiency: MOI of 500, HCN2
Experimental: as §1, §2, §3, §4

[9] = system: HepG2 cells; experiment: AAV-1-GFP transduction with CPPs, flow cytometry; assay type: cell-based, human; settings: 200 μM CPP; for cells expressing GFP: AAV-1 MOI of 500, HepG2, 5% in the absence of CPP; for increase of AAV-1 efficiency: MOI of 500, HepG2
Experimental: as §1, §2, §3, §4

[10] = system: HepG2 and HCN2 cells; experiment: AAV-2-GFP transduction with CPPs, statements for both cell lines; assay type: cell-based, human; settings: for impact on AAV-2 infectivity: 1 μM concentration, both cell lines; for share of the final improvement obtained with 200 μM: 10 μM concentration of CPP, AAV-2, both cell lines
Experimental: as §1, §2, §3, §4

[11] = system: HCN2 cells; experiment: AAV-8-GFP transduction with CPPs, flow cytometry; assay type: cell-based, human; settings: 200 μM CPP, AAV-8 MOI of 1000, HCN2; 5% in the absence of CPP
Experimental: as §1, §2, §3, §4

[12] = system: HepG2 cells; experiment: AAV-8-GFP transduction with CPPs, flow cytometry; assay type: cell-based, human; settings: 200 μM CPP, AAV-8 MOI of 1000, HepG2; 5% in the absence of CPP
Experimental: as §1, §2, §3, §4

[13] = system: HepG2 and HCN2 cells; experiment: AAV-8-GFP transduction with CPPs, statements for both cell lines; assay type: cell-based, human; settings: for impact on AAV-8 infectivity: 1 μM concentration, both cell lines; for share of the final improvement obtained at 200 μM: 10 μM concentration, AAV-8, both cell lines
Experimental: as §1, §2, §3, §4

[14] = system: HCN2 cells; experiment: AAV-6-GFP transduction with CPPs, flow cytometry; assay type: cell-based, human; settings: for cells expressing GFP: 200 μM of CPP, AAV-6 MOI of 500, HCN2, 4% in the absence of CPP; for increase of AAV-6 efficiency: 200 μM CPP, MOI of 500, HCN2
Experimental: as §1, §2, §3, §4

[15] = system: HepG2 cells; experiment: AAV-6-GFP transduction with CPPs, flow cytometry; assay type: cell-based, human; settings: 200 μM CPP; for cells expressing GFP: AAV-6 MOI of 500, HepG2, 5% in the absence of CPP; for increase of AAV-6 efficiency: MOI of 500, HepG2
Experimental: as §1, §2, §3, §4

[16] = system: HepG2 and HCN2 cells; experiment: AAV-1-GFP transduction with CPPs, statements for both cell lines; assay type: cell-based, human; settings: for impact on AAV-1 infectivity: 1 μM concentration, both cell lines; for share of the final improvement obtained with 200 μM: 10 μM concentration of CPP, AAV-1, both cell lines
Experimental: as §1, §2, §3, §4

Substance | effect of the modification on AAV/PEP-1 complex stability in serum [1] | reduction of the level of GFP expressing cells (efficacy) [1] [%] | impact on AAV-6 infectivity [2] | share of the final improvement obtained at 200 μM [2] | cells expressing GFP [3] [%] | cells expressing GFP [4] [%] | cells expressing GFP [5] [%] | cells expressing GFP [6] [%] | impact on AAV-5 infectivity [7] | share of the final improvement obtained at 200 μM [7] | cells expressing GFP [8] [%] | increase of AAV-1 efficiency [8] [fold] | cells expressing GFP [9] [%] | impact on AAV-2 infectivity [10] | share of the final improvement obtained with 200 μM [10] | cells expressing GFP [11] [%] | cells expressing GFP [12] [%] | impact on AAV-8 infectivity [13] | cells expressing GFP [14] [%] | cells expressing GFP [15] [%] | other results
PEG-βAKETWWETWWTEWSQPKKKRKV ({PEG-βAla}-KETWWETWWTEWSQPKKKRKV; reading uncertain) [PEP-1-PEG, PEP-1 mono-PEGylated with 5 kDa PEG at the N-terminal beta Alanine] | stabilized | 30 | – | – | – | – | – | – | – | – | – | – | – | – | – | – | – | – | – | – | increase of efficacy [1]: 40%
βALRWWLRWASRWFSRWAWWR (not fully specified (residue 1, N-terminus); printed as βALRWWLRWASRWFSRWAWWR) [ADGN-109] | – | – | significant impact | about 70% | 37 | 51 | 58 | 90 | significant impact | about 50% | 62 | 15 | 61 | significant impact | about 70% | 44 | 45 | significant impact | 62 | 82 | increase of AAV-1 efficiency [9]: 16 fold; share of the final improvement obtained at 200 μM [13]: about 60%; impact on AAV-1 infectivity [16]: significant impact; share of the final improvement obtained with 200 μM [16]: about 60%
βAKWRSAGWRWRLWRVRSWSR (not fully specified (residue 1, N-terminus); printed as βAKWRSAGWRWRLWRVRSWSR) [ADGN-100] | – | – | significant impact | about 70% | 22 | 39 | 59 | 57 | significant impact | about 50% | 52 | 12 | 50 | significant impact | about 70% | 23 | 26 | significant impact | 48 | 59 | increase of AAV-5 efficiency [3]: 5 fold; increase of AAV-5 efficiency [4]: 10 fold; increase of AAV-2 efficiency [5]: 15 fold; increase of AAV-2 efficiency [6]: 20 fold; increase of AAV-1 efficiency [9]: 13 fold; share of the final improvement obtained at 200 μM [13]: about 60%; increase of AAV-6 efficiency [14]: 15 fold; increase of AAV-6 efficiency [15]: 17 fold; impact on AAV-1 infectivity [16]: significant impact; share of the final improvement obtained with 200 μM [16]: about 60%
GLWRALWRLLRSLWRLLWKV [CADY, reference compound] | – | – | – | – | 10 | 11 | 20 | 23 | – | – | 22 | 3 | 27 | – | – | 12 | 15 | – | 18 | 29 | increase of AAV-5 efficiency [3]: 2 fold; increase of AAV-5 efficiency [4]: 3 fold; increase of AAV-2 efficiency [5]: 3 fold; increase of AAV-2 efficiency [6]: 5 fold; increase of AAV-6 efficiency [14]: 3 fold
βALWRALWRLWRSLWRLLWKA (not fully specified (residue 1, N-terminus); printed as βALWRALWRLWRSLWRLLWKA) [ADGN-106] | – | – | – | – | – | – | – | – | – | – | – | 7 | – | – | – | – | – | – | – | – | increase of AAV-5 efficiency [3]: 4 fold; increase of AAV-2 efficiency [5]: 7 fold; increase of AAV-6 efficiency [14]: 7 fold; increase of AAV-6 efficiency [15]: about 10 fold
βAKWFERWFREWPRKRR (not fully specified (residue 1, N-terminus); printed as βAKWFERWFREWPRKRR) [ADGN-103a] | – | – | significant impact | about 70% | 45 | 60 | 71 | 98 | significant impact | about 50% | 75 | – | 76 | significant impact | about 70% | 49 | 52 | significant impact | 65 | 94 | share of the final improvement obtained at 200 μM [13]: about 60%; impact on AAV-1 infectivity [16]: significant impact; share of the final improvement obtained with 200 μM [16]: about 60%
GYVSK-GGGGSKETWWETWWTEWSQPKKKRKV (Ac-GYVSKGGGGSKETWWETWWTEWSQPKKKRKV-cysteamide) [PEP-1 T1] | significantly protected | 27 | – | – | – | – | – | – | – | – | – | – | – | – | – | – | – | – | – | – | –
DOPA-GGGG-KETWWETWWTEWSQPKKKRKV (GGGGKETWWETWWTEWSQPKKKRKV; not fully specified (N-terminus)) [PEP-1-DOPA, Dopamine added to the N-terminus of PEP-1 using a Gly4 linker] | stabilized | 30 | – | – | – | – | – | – | – | – | – | – | – | – | – | – | – | – | – | – | increase of efficacy [1]: 40%
KETWWETWWTEWSQPKKKRKVGGGG-GYVSK (Ac-KETWWETWWTEWSQPKKKRKVGGGGGYVSK-cysteamide) [PEP-1 T2] | only a moderate effect | – | – | – | – | – | – | – | – | – | – | – | – | – | – | – | – | – | – | – | –
